Laboratory results: patent publication US10131653B2, “Heterocyclic compound” (TAKEDA PHARMACEUTICAL COMPANY LIMITED, priority 2015, dated 2018)
Like-named read-outs stand apart in the source and are kept apart here.

How the values were obtained:
human OX1 receptor = molecular target: T1, human OX1 receptor (Homo sapiens, UniProt O43613); assay: Measurement of orexin receptor antagonistic activity (calcium fluorescence, FLIPRtetra); assay type: cell-based; details: CHO, read-out: Human Orexin1 receptor inhibition (at 10 μM)
T1 construct: expressed in transfected cells; host or cells: CHO cells
T1 sequence (O43613 1-425): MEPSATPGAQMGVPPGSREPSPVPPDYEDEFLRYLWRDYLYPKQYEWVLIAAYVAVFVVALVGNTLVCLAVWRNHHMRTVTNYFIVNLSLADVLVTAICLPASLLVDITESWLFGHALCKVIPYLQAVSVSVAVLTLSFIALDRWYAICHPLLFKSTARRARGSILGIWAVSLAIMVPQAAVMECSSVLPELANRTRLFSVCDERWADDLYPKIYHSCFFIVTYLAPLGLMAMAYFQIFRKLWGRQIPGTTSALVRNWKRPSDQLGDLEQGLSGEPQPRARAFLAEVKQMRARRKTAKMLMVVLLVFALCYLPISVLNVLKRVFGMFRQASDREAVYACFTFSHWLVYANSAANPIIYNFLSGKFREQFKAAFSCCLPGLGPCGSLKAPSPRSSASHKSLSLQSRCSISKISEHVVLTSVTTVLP
Summary of the method: (§1)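 CHO cells expressing human OX1 or OX2 receptor, cultured one day. Compound in HBSS/20 mM HEPES/0.1% BSA added, then orexin-A at 1 nM final (OX1) or 0.3 nM final (OX2); calcium fluorescence by FLIPRtetra every 1 s for 2 min.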

human OX2 receptor = molecular target: T2, human OX2 receptor (Homo sapiens, UniProt O43614); assay: as above; assay type: cell-based; details: CHO, read-out: Human Orexin2 receptor inhibition (at 10 μM)
T2 construct: expressed in transfected cells; host or cells: CHO cells
T2 sequence (O43614 1-444): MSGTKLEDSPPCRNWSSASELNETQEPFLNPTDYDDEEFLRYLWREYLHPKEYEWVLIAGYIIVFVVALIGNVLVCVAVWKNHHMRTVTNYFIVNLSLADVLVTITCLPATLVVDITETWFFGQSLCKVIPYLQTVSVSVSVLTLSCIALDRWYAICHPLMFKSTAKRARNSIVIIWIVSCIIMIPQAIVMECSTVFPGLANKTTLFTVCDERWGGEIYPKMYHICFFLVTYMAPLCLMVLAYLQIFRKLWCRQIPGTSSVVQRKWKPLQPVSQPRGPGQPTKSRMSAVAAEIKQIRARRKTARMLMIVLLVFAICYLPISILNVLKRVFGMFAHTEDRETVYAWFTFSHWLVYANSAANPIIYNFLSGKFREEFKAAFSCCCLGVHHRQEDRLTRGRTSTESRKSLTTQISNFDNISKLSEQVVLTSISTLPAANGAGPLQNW
Summary of the method: as §1

[1] = 10 μM test compound, CHO cells expressing human OX1 receptor, OX-A 1 nM
[2] = 10 μM test compound, CHO cells expressing human OX2 receptor, OX-A 0.3 nM

SMILES: Cc1nc(N2CCN(C(=O)c3ccccc3-c3ncccn3)[C@H](C)CO2)cc(C(F)(F)F)n1 [Example 214, ((6R)-6-methyl-2-(2-methyl-6-(trifluoromethyl)pyrimidin-4-yl)-1,2,5-oxadiazepan-5-yl)(2-(pyrimidin-2-yl)phenyl)methanone]
- inhibition at 10 µM (human OX1 receptor; [1]): 55%
- inhibition at 10 µM (human OX2 receptor; [2]): 103%

SMILES: Cc1cc(C)nc(N2CCN(C(=O)c3cccc4ncccc34)CCO2)n1 [Example 65, (2-(4,6-dimethylpyrimidin-2-yl)-1,2,5-oxadiazepan-5-yl) (quinolin-5-yl)methanone]
- inhibition at 10 µM (human OX1 receptor): 9%
- inhibition at 10 µM (human OX2 receptor): 84%

SMILES: Cc1cc(N2CCN(C(=O)c3cccc(F)c3-c3ncccn3)C[C@H](C)O2)nc(C)n1 [Example 220, ((7S)-2-(2,6-dimethylpyrimidin-4-yl)-7-methyl-1,2,5-oxadiazepan-5-yl)(3-fluoro-2-(pyrimidin-2-yl)phenyl)methanone]
- inhibition at 10 µM (human OX1 receptor; [1]): 15%
- inhibition at 10 µM (human OX2 receptor; [2]): 101%

SMILES: Cc1cc(N2CCN(C(=O)c3ccccc3-c3ncccn3)C[C@H](C)O2)nc(C)n1 [Example 109, ((7S)-2-(2,6-dimethylpyrimidin-4-yl)-7-methyl-1,2,5-oxadiazepan-5-yl)(2-(pyrimidin-2-yl)phenyl)methanone]
- inhibition at 10 µM (human OX1 receptor; [1]): 85%
- inhibition at 10 µM (human OX2 receptor; [2]): 101%

SMILES: Cc1ccnc(N2CCN(C(=O)c3cc(C)ccc3-n3nccn3)[C@H](C)CO2)c1 [Example 125, ((6R)-6-methyl-2-(4-methylpyridin-2-yl)-1,2,5-oxadiazepan-5-yl) (5-methyl-2-(2H-1,2,3-triazol-2-yl)phenyl)methanone]
- inhibition at 10 µM (human OX1 receptor; [1]): 68%
- inhibition at 10 µM (human OX2 receptor; [2]): 98%

SMILES: Cc1nc(N2CCN(C(=O)c3cc(Cl)ccc3-n3nccn3)C[C@H](C)O2)cc(C(F)(F)F)n1 [Example 3, (5-chloro-2-(2H-1,2,3-triazol-2-yl)phenyl)((7S)-7-methyl-2-(2-methyl-6-(trifluoromethyl)pyrimidin-4-yl)-1,2,5-oxadiazepan-5-yl)methanone]
- inhibition at 10 µM (human OX1 receptor; [1]): 87%
- inhibition at 10 µM (human OX2 receptor; [2]): 100%

SMILES: Cc1ccc(-n2nccn2)c(C(=O)N2[C@H](C)CON(c3cc(C)nc(C)n3)C[C@@H]2C)c1 [Example 176, ((4S,6R)-2-(2,6-dimethylpyrimidin-4-yl)-4,6-dimethyl-1,2,5-oxadiazepan-5-yl)(5-methyl-2-(2H-1,2,3-triazol-2-yl)phenyl)methanone]
- inhibition at 10 µM (human OX1 receptor; [1]): 103%
- inhibition at 10 µM (human OX2 receptor; [2]): 101%

SMILES: Cc1cc(N2CCN(C(=O)c3cc(C(F)(F)F)ccc3-n3nccn3)CCO2)nc(C)n1 [Example 202, (2-(2,6-dimethylpyrimidin-4-yl)-1,2,5-oxadiazepan-5-yl)(2-(2H-1,2,3-triazol-2-yl)-5-(trifluoromethyl)phenyl)methanone]
- inhibition at 10 µM (human OX1 receptor; [1]): 17%
- inhibition at 10 µM (human OX2 receptor; [2]): 102%

SMILES: Cc1nc(N2CCN(C(=O)c3ccccc3-c3nccs3)C[C@H](C)O2)cc(C(F)(F)F)n1 [Example 85, ((7S)-7-methyl-2-(2-methyl-6-(trifluoromethyl)pyrimidin-4-yl)-1,2,5-oxadiazepan-5-yl)(2-(1,3-thiazol-2-yl)phenyl)methanone]
- inhibition at 10 µM (human OX1 receptor; [1]): 98%
- inhibition at 10 µM (human OX2 receptor; [2]): 102%

SMILES: Cc1cc(N2CCN(C(=O)c3ccccc3-c3nccs3)[C@@H](C)CO2)nc(C)n1 [Example 171, ((6S)-2-(2,6-dimethylpyrimidin-4-yl)-6-methyl-1,2,5-oxadiazepan-5-yl)(2-(1,3-thiazol-2-yl)phenyl)methanone]
- inhibition at 10 µM (human OX1 receptor; [1]): 37%
- inhibition at 10 µM (human OX2 receptor; [2]): 102%

SMILES: Cc1ccc(-n2nccn2)c(C(=O)N2CCN(c3ncc4sccc4n3)OC[C@H]2C)c1 [Example 116, ((6R)-6-methyl-2-(thieno[3,2-d]pyrimidin-2-yl)-1,2,5-oxadiazepan-5-yl) (5-methyl-2-(2H-1,2,3-triazol-2-yl)phenyl)methanone]
- inhibition at 10 µM (human OX1 receptor; [1]): 101%
- inhibition at 10 µM (human OX2 receptor; [2]): 100%

SMILES: COc1cccc(N2CCN(C(=O)c3cc(C)ccc3-n3nccn3)[C@H](C)CO2)c1 [Example 120, ((6R)-2-(3-methoxyphenyl)-6-methyl-1,2,5-oxadiazepan-5-yl) (5-methyl-2-(2H-1,2,3-triazol-2-yl)phenyl)methanone]
- inhibition at 10 µM (human OX1 receptor; [1]): 83%
- inhibition at 10 µM (human OX2 receptor; [2]): 100%

SMILES: Cc1ccc(-n2nccn2)c(C(=O)N2CCN(c3cncc(Cl)c3)OC[C@H]2C)c1 [Example 133, ((6R)-2-(5-chloropyridin-3-yl)-6-methyl-1,2,5-oxadiazepan-5-yl) (5-methyl-2-(2H-1,2,3-triazol-2-yl)phenyl)methanone]
- inhibition at 10 µM (human OX1 receptor): 11%
- inhibition at 10 µM (human OX2 receptor): 70%

SMILES: Cc1cc(C)nc(N2CCN(C(=O)c3cccc4c3ccn4C)CCO2)n1 [Example 72, (2-(4,6-dimethylpyrimidin-2-yl)-1,2,5-oxadiazepan-5-yl) (1-methyl-1H-indol-4-yl) methanone]
- inhibition at 10 µM (human OX1 receptor; [1]): 34%
- inhibition at 10 µM (human OX2 receptor; [2]): 94%

SMILES: C[C@@H]1CON(c2cccc(CO)n2)CCN1C(=O)c1ccccc1-n1nccn1 [Example 158, ((6R)-2-(6-(hydroxymethyl)pyridin-2-yl)-6-methyl-1,2,5-oxadiazepan-5-yl)(2-(2H-1,2,3-triazol-2-yl)phenyl)methanone]
- inhibition at 10 µM (human OX1 receptor; [1]): 18%
- inhibition at 10 µM (human OX2 receptor; [2]): 99%

SMILES: Cc1cc(C)nc(N2CCN(C(=O)c3cccc4ccccc34)CCO2)n1 [Example 64, (2-(4,6-dimethylpyrimidin-2-yl)-1,2,5-oxadiazepan-5-yl) (1-naphthyl)methanone]
- inhibition at 10 µM (human OX1 receptor; [1]): 76%
- inhibition at 10 µM (human OX2 receptor; [2]): 101%

SMILES: COc1cccc(N2CCN(C(=O)c3ccccc3-c3nccs3)CCO2)n1 [Example 36, (2-(6-methoxypyridin-2-yl)-1,2,5-oxadiazepan-5-yl)(2-(1,3-thiazol-2-yl)phenyl)methanone]
- inhibition at 10 µM (human OX1 receptor; [1]): 67%
- inhibition at 10 µM (human OX2 receptor; [2]): 100%

SMILES: Cc1ccc(-n2nccn2)c(C(=O)N2CCON(c3cccc(C)n3)CC2)c1 [Example 33, (2-(6-methylpyridin-2-yl)-1,2,5-oxadiazepan-5-yl)(5-methyl-2-(2H-1,2,3-triazol-2-yl)phenyl)methanone]
- inhibition at 10 µM (human OX1 receptor; [1]): 44%
- inhibition at 10 µM (human OX2 receptor; [2]): 99%

SMILES: Cc1ccc(-n2nccn2)c(C(=O)N2[C@H](C)CON(c3cc(C)nc(C(F)(F)F)n3)C[C@@H]2C)c1 [Example 177, ((4S,6R)-4,6-dimethyl-2-(6-methyl-2-(trifluoromethyl)pyrimidin-4-yl)-1,2,5-oxadiazepan-5-yl) (5-methyl-2-(2H-1,2,3-triazol-2-yl)phenyl)methanone]
- inhibition at 10 µM (human OX1 receptor; [1]): 102%
- inhibition at 10 µM (human OX2 receptor; [2]): 106%

SMILES: Cc1cc(C)nc(N2CCN(C(=O)c3cc(Cl)ccc3Cl)CCO2)n1 [Example 54, (2,5-dichlorophenyl) (2-(4,6-dimethylpyrimidin-2-yl)-1,2,5-oxadiazepan-5-yl)methanone]
- inhibition at 10 µM (human OX1 receptor; [1]): 16%
- inhibition at 10 µM (human OX2 receptor; [2]): 84%

SMILES: Cc1ccc(-n2nccn2)c(C(=O)N2CCN(c3cccc(C)n3)OC[C@H]2C)c1 [Example 124, ((6R)-6-methyl-2-(6-methylpyridin-2-yl)-1,2,5-oxadiazepan-5-yl) (5-methyl-2-(2H-1,2,3-triazol-2-yl)phenyl)methanone]
- inhibition at 10 µM (human OX1 receptor; [1]): 85%
- inhibition at 10 µM (human OX2 receptor; [2]): 101%

SMILES: Cc1ccc(-c2ncccn2)c(C(=O)N2CCN(c3cc(C)nc(C)n3)O[C@@H](C)C2)c1 [Example 196, ((7S)-2-(2,6-dimethylpyrimidin-4-yl)-7-methyl-1,2,5-oxadiazepan-5-yl)(5-methyl-2-(pyrimidin-2-yl)phenyl)methanone]
- inhibition at 10 µM (human OX1 receptor; [1]): 89%
- inhibition at 10 µM (human OX2 receptor; [2]): 100%
